Assay results published in BindingDB's records for doi:10.1021/jm701049p (Seoul National University, 2008).

Each compound was assayed against Transient receptor potential cation channel subfamily V member 1 (Rattus norvegicus, UniProt O35433) (assay: Competition Binding Assay and Inhibition of Ca2+ Uptake Assay). Details: pH 7.4; 37 °C.
Method: Binding assay mixtures were set up and contained [3H] RTX, various concentrations of competing ligands, and rVR1-transfected CHO cells. Nonspecific binding was determined in the presence of 100 nM nonradioactive RTX. After the binding reaction, membrane-bound RTX was separated from the free by centrifugation, and the radioactivity was determined by scintillation counting. Equilibrium binding parameters (Ki, Bmax, and cooperativity) were determined by fitting the Hill equation to the measured values with the aid of the program Origin 6.0.

Chain of Transient receptor potential cation channel subfamily V member 1 (O35433 whole entry): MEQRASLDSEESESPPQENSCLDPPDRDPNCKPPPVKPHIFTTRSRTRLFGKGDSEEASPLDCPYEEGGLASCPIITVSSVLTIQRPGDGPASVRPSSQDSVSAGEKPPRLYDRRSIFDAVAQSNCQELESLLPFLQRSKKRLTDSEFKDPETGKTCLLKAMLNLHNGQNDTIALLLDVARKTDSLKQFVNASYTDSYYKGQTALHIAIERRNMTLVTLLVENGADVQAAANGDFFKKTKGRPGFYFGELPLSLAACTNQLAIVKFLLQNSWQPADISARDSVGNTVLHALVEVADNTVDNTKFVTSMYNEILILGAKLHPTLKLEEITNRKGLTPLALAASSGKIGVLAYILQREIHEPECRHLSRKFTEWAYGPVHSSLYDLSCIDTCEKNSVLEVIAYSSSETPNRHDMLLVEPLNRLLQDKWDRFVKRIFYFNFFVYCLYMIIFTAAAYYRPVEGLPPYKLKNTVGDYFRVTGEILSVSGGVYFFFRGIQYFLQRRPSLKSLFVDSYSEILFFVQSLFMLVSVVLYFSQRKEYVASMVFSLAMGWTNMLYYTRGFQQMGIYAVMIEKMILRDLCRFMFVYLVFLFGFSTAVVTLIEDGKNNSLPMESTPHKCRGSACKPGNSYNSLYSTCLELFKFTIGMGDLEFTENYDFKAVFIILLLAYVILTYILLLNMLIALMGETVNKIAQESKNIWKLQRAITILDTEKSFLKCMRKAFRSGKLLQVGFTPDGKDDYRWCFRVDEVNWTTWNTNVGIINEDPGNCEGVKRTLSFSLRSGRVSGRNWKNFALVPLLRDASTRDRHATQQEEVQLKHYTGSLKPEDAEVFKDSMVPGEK

**Q.** For `Cc1ccc(CC(CNC(=O)C(C)c2ccc(NS(C)(=O)=O)cc2)COC(=O)C(C)(C)C)cc1C` (stereo not drawn) [2-[(3,4-dimethylphenyl)methyl]-3-[2-(4-methanesulfonamidophenyl)propanamido]propyl 2,2-dimethylpropanoate], which Ki is on record?
**A.** 38 nM

**Q.** `C[C@H](C(=O)NC[C@H](COC(=O)C(C)(C)C)Cc1ccccc1)c1ccc(NS(C)(=O)=O)c(F)c1` [(2R)-2-benzyl-3-[(2S)-2-(3-fluoro-4-methanesulfonamidophenyl)propanamido]propyl 2,2-dimethylpropanoate] was tested. Which Ki did it give?
**A.** 8.56 nM

**Q.** `CC(C(=O)NCC(COC(=O)C(C)(C)C)Cc1ccc(C(C)(C)C)cc1)c1ccc(NS(C)(=O)=O)cc1` (stereo not drawn) [2-[(4-tert-butylphenyl)methyl]-3-[2-(4-methanesulfonamidophenyl)propanamido]propyl 2,2-dimethylpropanoate] was tested. Which Ki did it give?
**A.** 52 nM

**Q.** Which Ki does the source give for `Cc1ccc(CC(CNC(=O)C(C)c2ccc(NS(C)(=O)=O)c(F)c2)COC(=O)C(C)(C)C)cc1C` (stereo not drawn) [2-[(3,4-dimethylphenyl)methyl]-3-[2-(3-fluoro-4-methanesulfonamidophenyl)propanamido]propyl 2,2-dimethylpropanoate] here?
**A.** 10.8 nM

**Q.** Which Ki does the source give for `Cc1ccc(CC(CNC(=O)C(C)(C)c2ccc(NS(C)(=O)=O)c(F)c2)COC(=O)C(C)(C)C)cc1C` (stereo not drawn) [2-[(3,4-dimethylphenyl)methyl]-3-[2-(3-fluoro-4-methanesulfonamidophenyl)-2-methylpropanamido]propyl 2,2-dimethylpropanoate] here?
**A.** 65 nM

**Q.** `Cc1ccc(CC(CNC(=O)C(C)(C)c2ccc(NS(C)(=O)=O)cc2)COC(=O)C(C)(C)C)cc1C` (stereo not drawn) [2-[(3,4-dimethylphenyl)methyl]-3-[2-(4-methanesulfonamidophenyl)-2-methylpropanamido]propyl 2,2-dimethylpropanoate] was tested. Which Ki did it give?
**A.** 104 nM

**Q.** With `C[C@@H](C(=O)NC[C@H](COC(=O)C(C)(C)C)Cc1ccc(C(C)(C)C)cc1)c1ccc(NS(C)(=O)=O)c(F)c1` [(2R)-2-[(4-tert-butylphenyl)methyl]-3-[(2R)-2-(3-fluoro-4-methanesulfonamidophenyl)propanamido]propyl 2,2-dimethylpropanoate] as the compound, how does the Ki read?
**A.** 30.3 nM

**Q.** `Cc1ccc(CC(CNC(=S)NCc2ccc(NS(C)(=O)=O)c(F)c2)COC(=O)C(C)(C)C)cc1C` (stereo not drawn) was tested. Which Ki did it give?
**A.** 7.8 nM

**Q.** Which Ki does the source give for `C[C@H](C(=O)NC[C@@H](COC(=O)C(C)(C)C)Cc1ccc(C(C)(C)C)cc1)c1ccc(NS(C)(=O)=O)c(Cl)c1` [(2S)-2-[(4-tert-butylphenyl)methyl]-3-[(2S)-2-(3-chloro-4-methanesulfonamidophenyl)propanamido]propyl 2,2-dimethylpropanoate] here?
**A.** 12.1 nM

**Q.** How did the Ki turn out when `C[C@@H](C(=O)NC[C@@H](COC(=O)C(C)(C)C)Cc1ccc(C(C)(C)C)cc1)c1ccc(NS(C)(=O)=O)c(F)c1` [(2S)-2-[(4-tert-butylphenyl)methyl]-3-[(2R)-2-(3-fluoro-4-methanesulfonamidophenyl)propanamido]propyl 2,2-dimethylpropanoate] was run?
**A.** 142 nM

**Q.** With `COc1cc(C(C)C(=O)NCC(COC(=O)C(C)(C)C)Cc2ccc(C)c(C)c2)ccc1NS(C)(=O)=O` (stereo not drawn) [2-[(3,4-dimethylphenyl)methyl]-3-[2-(4-methanesulfonamido-3-methoxyphenyl)propanamido]propyl 2,2-dimethylpropanoate] as the compound, how does the Ki read?
**A.** 13.6 nM

**Q.** `CC(C(=O)NCC(COC(=O)C(C)(C)C)Cc1ccc(C(C)(C)C)cc1)c1ccc(NS(C)(=O)=O)c(Cl)c1` (stereo not drawn) [2-[(4-tert-butylphenyl)methyl]-3-[2-(3-chloro-4-methanesulfonamidophenyl)propanamido]propyl 2,2-dimethylpropanoate] was tested. Which Ki did it give?
**A.** 12.3 nM

**Q.** With `C[C@H](C(=O)NC[C@@H](COC(=O)C(C)(C)C)Cc1ccc(C(C)(C)C)cc1)c1ccc(NS(C)(=O)=O)c(F)c1` [(2S)-2-[(4-tert-butylphenyl)methyl]-3-[(2S)-2-(3-fluoro-4-methanesulfonamidophenyl)propanamido]propyl 2,2-dimethylpropanoate] as the compound, how does the Ki read?
**A.** 10.9 nM

**Q.** For `COc1cc(C(C)(C)C(=O)NCC(COC(=O)C(C)(C)C)Cc2ccc(C)c(C)c2)ccc1NS(C)(=O)=O` (stereo not drawn) [2-[(3,4-dimethylphenyl)methyl]-3-[2-(4-methanesulfonamido-3-methoxyphenyl)-2-methylpropanamido]propyl 2,2-dimethylpropanoate], which Ki is on record?
**A.** 133 nM

**Q.** How did the Ki turn out when `Cc1ccc(CC(CNC(=O)C2(c3ccc(NS(C)(=O)=O)c(F)c3)CC2)COC(=O)C(C)(C)C)cc1C` (stereo not drawn) [2-[(3,4-dimethylphenyl)methyl]-3-{[1-(3-fluoro-4-methanesulfonamidophenyl)cyclopropyl]formamido}propyl 2,2-dimethylpropanoate] was run?
**A.** 567 nM

**Q.** Which Ki does the source give for `C=C(C)[C@]12C[C@@H](C)[C@@]34OC(Cc5ccccc5)(O[C@@H]1[C@@H]3C=C(COC(=O)Cc1cc(I)c(O)c(OC)c1)C[C@]1(O)C(=O)C(C)=C[C@@H]41)O2` [[(1R,2R,6R,10S,11R,15R,17R)-13-benzyl-6-hydroxy-4,17-dimethyl-5-oxo-15-(prop-1-en-2-yl)-12,14,18-trioxapentacyclo[11.4.1.0^{1,10}.0^{2,6}.0^{11,15}]octadeca-3,8-dien-8-yl]methyl 2-(4-hydroxy-3-iodo-5-methoxyphenyl)acetate] here?
**A.** 12.2 nM

**Q.** `C[C@H](C(=O)NC[C@@H](COC(=O)C(C)(C)C)Cc1ccccc1)c1ccc(NS(C)(=O)=O)c(F)c1` [(2S)-2-benzyl-3-[(2S)-2-(3-fluoro-4-methanesulfonamidophenyl)propanamido]propyl 2,2-dimethylpropanoate] was tested. Which Ki did it give?
**A.** 10 nM

**Q.** How did the Ki turn out when `C[C@H](C(=O)NC[C@H](COC(=O)C(C)(C)C)Cc1ccc(C(C)(C)C)cc1)c1ccc(NS(C)(=O)=O)c(F)c1` [(2R)-2-[(4-tert-butylphenyl)methyl]-3-[(2S)-2-(3-fluoro-4-methanesulfonamidophenyl)propanamido]propyl 2,2-dimethylpropanoate] was run?
**A.** 0.58 nM

**Q.** With `C[C@@H](C(=O)NC[C@H](COC(=O)C(C)(C)C)Cc1ccccc1)c1ccc(NS(C)(=O)=O)c(F)c1` [(2R)-2-benzyl-3-[(2R)-2-(3-fluoro-4-methanesulfonamidophenyl)propanamido]propyl 2,2-dimethylpropanoate] as the compound, how does the Ki read?
**A.** 98 nM

**Q.** `Cc1ccc(CC(CNC(=O)C2(c3ccc(NS(C)(=O)=O)cc3)CC2)COC(=O)C(C)(C)C)cc1C` (stereo not drawn) [2-[(3,4-dimethylphenyl)methyl]-3-{[1-(4-methanesulfonamidophenyl)cyclopropyl]formamido}propyl 2,2-dimethylpropanoate] was tested. Which Ki did it give?
**A.** 197 nM

**Q.** For `CC(C)(C)C(=O)OCC(CNC(=S)NCc1ccc(NS(C)(=O)=O)c(F)c1)Cc1ccc(C(C)(C)C)cc1` (stereo not drawn), which Ki is on record?
**A.** 52 nM

**Q.** Which Ki does the source give for `CC(C)(C)C(=O)OCC(CNC(=O)Cc1ccc(NS(C)(=O)=O)c(F)c1)Cc1ccc(C(C)(C)C)cc1` (stereo not drawn) here?
**A.** 440 nM

**Q.** For `Cc1ccc(CC(CNC(=O)C(C)c2ccc(NS(C)(=O)=O)c(Cl)c2)COC(=O)C(C)(C)C)cc1C` (stereo not drawn) [3-[2-(3-chloro-4-methanesulfonamidophenyl)propanamido]-2-[(3,4-dimethylphenyl)methyl]propyl 2,2-dimethylpropanoate], which Ki is on record?
**A.** 36 nM

**Q.** Which Ki does the source give for `COc1cc(C2(C(=O)NCC(COC(=O)C(C)(C)C)Cc3ccc(C)c(C)c3)CC2)ccc1NS(C)(=O)=O` (stereo not drawn) [2-[(3,4-dimethylphenyl)methyl]-3-{[1-(4-methanesulfonamido-3-methoxyphenyl)cyclopropyl]formamido}propyl 2,2-dimethylpropanoate] here?
**A.** 118 nM

**Q.** For `CC(C(=O)NCC(COC(=O)C(C)(C)C)Cc1ccc(C(C)(C)C)cc1)c1ccc(NS(C)(=O)=O)c(F)c1` (stereo not drawn) [diastereomeric mixture], which Ki is on record?
**A.** 3.24 nM

**Q.** Which Ki does the source give for `C[C@@H](C(=O)NC[C@@H](COC(=O)C(C)(C)C)Cc1ccccc1)c1ccc(NS(C)(=O)=O)c(F)c1` [(2S)-2-benzyl-3-[(2R)-2-(3-fluoro-4-methanesulfonamidophenyl)propanamido]propyl 2,2-dimethylpropanoate] here?
**A.** 205 nM

**Q.** For `C[C@H](C(=O)NC[C@H](COC(=O)C(C)(C)C)Cc1ccc(C(C)(C)C)cc1)c1ccc(NS(C)(=O)=O)c(Cl)c1` [(2R)-2-[(4-tert-butylphenyl)methyl]-3-[(2S)-2-(3-chloro-4-methanesulfonamidophenyl)propanamido]propyl 2,2-dimethylpropanoate], which Ki is on record?
**A.** 5.2 nM

Same assay, conditions: pH 7.4; 37 °C; read-out: Ki

**Q.** How did the Ki turn out when `C=C(C)[C@]12C[C@@H](C)[C@@]34OC(Cc5ccccc5)(O[C@@H]1[C@@H]3C=C(COC(=O)Cc1cc(I)c(O)c(OC)c1)C[C@]1(O)C(=O)C(C)=C[C@@H]41)O2` [[(1R,2R,6R,10S,11R,15R,17R)-13-benzyl-6-hydroxy-4,17-dimethyl-5-oxo-15-(prop-1-en-2-yl)-12,14,18-trioxapentacyclo[11.4.1.0^{1,10}.0^{2,6}.0^{11,15}]octadeca-3,8-dien-8-yl]methyl 2-(4-hydroxy-3-iodo-5-methoxyphenyl)acetate] was run?
**A.** 0.61 nM
